The text below walks through data of patent US6472385B1, “Compositions and methods to enhance cancer chemotherapy in p53 defective tumors” (priority 1999, dated 2002).

The test system of assay [1] is G2 checkpoint activated by DNA damage. The settings on record: literature; UCN-01: noncytotoxic doses, cisplatin; cited from earlier work.
Assay [2] has as its system DNA damage-induced cell cycle arrest. Put plainly: Cell cycle analysis: abrogation of DNA damage-induced cell cycle arrest. The class given is cell-based. To be noted: for G2 arrest caused by the compound itself: compound alone / at concentrations capable of abrogating arrest. As for the experimental part:
Experiments of cell cycle analysis were conducted in accordance with procedures described by […] et al. Cell Growth and Differ. 1994 5:983-993; Bunch, R. T. and Eastman, A. […] T. and Eastman, A. Cell Growth and Differ. 1997 8:779-788.

Assay [3] has the same test system. Put plainly: Cell cycle arrest abrogation in the presence of human plasma / plasma proteins. The settings on record: human plasma / human plasma proteins added. Type of assay: cell-based. How it is done:
However, in K252a the hexose. moiety is replaced with a pentose moiety. […] It is believed that the pentose ring of this structure prevents binding of this compound to human plasma proteins.
Experiments of cell cycle analysis were conducted in accordance with procedures described by Demarcq et al. Cell Growth and Differ. 1994 5:983-993; Bunch, R. T. and Eastman, A. Clinical Cancer Research 1996 2:791-7; and Bunch, R. T. and Eastman, A. Cell Growth and Differ. 1997 8:779-788.

The test system of assay [4] is p53 defective human breast cancer cells lines, MDA-MD-231 and T47D. As to the kind of experiment: Selectivity of arrest abrogation for p53 defective cell lines. The class given is cell-based. As for the experimental part:
The breast cancer cell lines were obtained from the American Type Culture Collection (Rockville, Md.). The cells were maintained in Dulbecco's modified Eagle's Medium supplemented with 10% fetal bovine serum, penicillin (100 units/ml), streptomycin (100 μg/ml) and fungizone (0.25 μg/ml).

The test system of assay [5] is Chinese hamster ovary cells. To be noted: Chinese hamster ovary cells incubated with cisplatin; cited from earlier work.
The subject of another assay is human cells. To be noted: cited from earlier work.
Assay [6] concerns human prostate carcinoma cells. The settings on record: cited from earlier work.

As to `C[C@@](O)(/C=C/[C@H]1CC=CC(=O)O1)[C@@H](C[C@@H](O)\C=C/C=C\C=C\CO)OP(=O)(O)O` [fostriecin], in assay [1], the “abrogation of G2 checkpoint / G2 arrest after DNA damage” value (shortened to “abrogation of G2 checkpoint / G2 arrest”) is on record as “abrogate the G2 checkpoint”.

As to `COC[C@@H]([C@H](O)[C@H](O)C(=O)NCC[C@H](C)c1nc(/C=C/C[C@@H]2O[C@]3(C[C@@H](O)[C@@H]2C)O[C@H]([C@H](C[C@H](O)[C@H](C)[C@H](O)[C@H](C)/C=C(C)/C(C)=C/C=C/C(C)=C\C#N)OC)[C@H](OP(=O)(O)O)C3(C)C)co1)N(C)C` [calyculin A], the “abrogation of G2 checkpoint / G2 arrest” value in assay [1] is “abrogate the G2 checkpoint”.

As to `COC(=O)[C@@]1(O)CC2O[C@]1(C)n1c3ccccc3c3c4c(c5c6ccccc6n2c5c31)C(=O)NC4=O` [ICP1], in assay [2], the “G2 arrest caused by the compound itself” value is given as “does not cause G2 arrest”. Also, the “abrogation of cell cycle arrest” value in assay [2] (non-toxic concentrations) was “abrogates cell cycle arrest at non-toxic concentrations”. Further, the “activity (abrogation of cell cycle arrest) in the presence of human plasma” value in assay [3] is listed as “maintain its ability to abrogate cell cycle arrest”. The “selectivity of abrogation of cell arrest for p53 defective cell lines” value in assay [4] was “selective for p53 defective cell lines”.

Take `CC(=O)CCCCn1c(=O)c2c(ncn2C)n(C)c1=O` [pentoxifylline]: in assay [1], the “abrogation of G2 checkpoint / G2 arrest” value is “abrogate the G2 checkpoint”.

In the case of `C=C1[C@@H](O)[C@@H]2O[C@]3(CC[C@H](/C=C/[C@@H](C)[C@@H]4CC(C)=C[C@@]5(O[C@H](C[C@@](C)(O)C(=O)O)CC[C@H]5O)O4)O3)CC[C@H]2O[C@@H]1[C@@H](O)C[C@H](C)[C@H]1O[C@@]2(CCCCO2)CC[C@H]1C` [okadaic acid], the “abrogation of G2 checkpoint / G2 arrest” value in assay [1] is listed as “abrogate the G2 checkpoint”.

Take `CN[C@@H]1C[C@H]2O[C@@](C)([C@@H]1OC)n1c3ccccc3c3c4c(c5c6ccccc6n2c5c31)C(=O)N[C@H]4O` [UCN-01, 7-hydroxystaurosporine]: the “abrogation of G2 checkpoint / G2 arrest” value in assay [1] is “abrogate the G2 arrest”. The “abrogation of S-phase arrest” value in assay [5] is listed as “abrogates this S-phase arrest”. For the same compound, in the assay with human cells, the “abrogation of S phase arrest” value is “Abrogation of S phase arrest has also been observed”.

Regarding `COC(=O)[C@@]1(O)CC2O[C@]1(C)n1c3ccccc3c3c4c(c5c6ccccc6n2c5c31)C(=O)NC4` [K252a], the “abrogation of cell cycle arrest in the G2 phase” value in assay [2] (G2 phase) was “does not abrogate cell cycle arrest in the G2 phase”. Also, in assay [2] (S phase), the “abrogation of cell cycle arrest in the S phase” value is reported as “only abrogates cell cycle arrest in the S phase”. Besides, the “G2 arrest caused by the compound itself” value in assay [2] is “causes G2 arrest”. For the same compound, in assay [3], the “activity (abrogation of cell cycle arrest) in the presence of human plasma” value is listed as “not inhibited”. Further, the “inhibition of growth of human prostate carcinoma cells” value in assay [6] is reported as “inhibit the growth”.

As for `CN[C@@H]1C[C@H]2O[C@@](C)([C@@H]1OC)n1c3ccccc3c3c4c(c5c6ccccc6n2c5c31)C(=O)NC4` [staurosporine], the “abrogation of G2 checkpoint / G2 arrest” value in assay [1] is on record as “abrogate the G2 checkpoint”.
